According to ChEMBL document CHEMBL1201862, “PubChem BioAssay data set” (2004):
Active and inactive are the calls of the source.

Columns and labels:
Cytochrome P450 2C19 = Cytochrome P450 2C19 (Homo sapiens, UniProt P33261); experiment: Cytochrome panel assay with activity outcomes. Panel member name: p450-cyp2c19 Compounds with AC50 equal or less than 10 uM are considered active; assay type: functional; conditions: read-out: AC50
Cytochrome P450 3A4 = Cytochrome P450 3A4 (Homo sapiens, UniProt P08684);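 further: CYP3A4 tested as one member of a cytochrome P450 panel screen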
Cytochrome P450 2C9 = Cytochrome P450 2C9 (Homo sapiens, UniProt P11712)
[1] = biological target: T1, Corticotropin-releasing factor receptor 2/Corticotropin-releasing factor-binding protein (Homo sapiens, UniProt P24387+Q13324); experiment: activators of CRF receptor 2 with binding protein – uHTS hits, confirmation (AID 602473); assay type: functional; conditions: read-out: EC50_Mean
T1 sequence (Q13324 whole entry): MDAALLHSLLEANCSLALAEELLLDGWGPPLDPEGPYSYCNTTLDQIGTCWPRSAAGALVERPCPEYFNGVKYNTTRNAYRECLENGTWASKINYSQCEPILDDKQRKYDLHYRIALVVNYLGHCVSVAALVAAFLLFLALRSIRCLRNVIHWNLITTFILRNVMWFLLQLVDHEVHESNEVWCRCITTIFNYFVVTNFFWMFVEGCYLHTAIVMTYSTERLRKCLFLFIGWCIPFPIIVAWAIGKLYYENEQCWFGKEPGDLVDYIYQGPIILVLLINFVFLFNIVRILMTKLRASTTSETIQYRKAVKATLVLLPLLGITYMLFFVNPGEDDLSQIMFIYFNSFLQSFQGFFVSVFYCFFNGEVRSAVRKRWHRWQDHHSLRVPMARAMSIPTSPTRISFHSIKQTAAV
T1 sequence (P24387 whole entry): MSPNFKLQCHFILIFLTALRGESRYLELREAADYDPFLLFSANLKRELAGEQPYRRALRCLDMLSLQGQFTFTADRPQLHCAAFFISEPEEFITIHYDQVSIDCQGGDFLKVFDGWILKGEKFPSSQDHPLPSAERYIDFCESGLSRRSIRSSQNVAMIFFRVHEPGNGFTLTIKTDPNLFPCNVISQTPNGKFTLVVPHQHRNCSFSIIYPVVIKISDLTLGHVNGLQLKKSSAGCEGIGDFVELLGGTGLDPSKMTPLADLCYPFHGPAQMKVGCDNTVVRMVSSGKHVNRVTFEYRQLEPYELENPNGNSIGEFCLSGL

INS1 = experiment: INS-1E survival protection against cytokine death – cell-based, luminescence, retest, dose response (AID 449756); assay type: functional; conditions: Rattus norvegicus;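 further: cell death triggered by IL-1 beta plus TNF-alpha plus IFN-gamma mixture; protective hits raise ATP signal compared with cytokine alone wells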
[2] = Luminescence Cell-Based Dose Response HTS to Identify Activators of Luciferase Translation or Activity in H4 […] Cells. [Related pubchem assays: 1829 (Project Summary), 1814 (Primary HTS)]; assay type: functional
H4 = experiment: Luminescence Cell-Based Dose Response HTS to Identify Activators of 5'UTR Stem-Loop Driven Prion Protein mRNA Translation in H4 Neuroglioblastoma Cells. [Related pubchem assays: 1829 (Project Summary), 1814 (Primary HTS)]; assay type: functional; conditions: Homo sapiens
Cytochrome P450 2D6 = Cytochrome P450 2D6 (Homo sapiens, UniProt P10635);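 further: CYP2D6 member of a cytochrome P450 panel assay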
[3] = NIH3T3 cell viability loss – ATP luminescence, mouse fibroblasts, counter-screen, dose response (AID 2010); assay type: functional, cell-based;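 further: cells exposed to compound for about 90 hours before reading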
[4] = Trypanosoma cruzi growth suppression in host cells – NIH3T3 host cells, beta-gal luminescence, confirmation (AID 2044); assay type: functional, cell-based;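 further: intracellular parasites grown in NIH/3T3 mouse fibroblasts as host cells; luminescent beta-galactosidase reporter signal from transgenic T. cruzi replicating inside host cells; inhibitors lower the luminescence signal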
[5] = NIH-3T3 fibroblast cytotoxicity, dose response, cytotoxicity control, cell-based, fluorescence, Alamar Blue, secondary assay (AID 2327); assay type: functional;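 further: NIH-3T3 mouse fibroblasts cultured with fluconazole at 8 µg/mL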
Cytochrome P450 1A2 = biological target: T2, Cytochrome P450 1A2 (Homo sapiens, UniProt P05177);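 further: PubChem cytochrome P450 panel assay, CYP1A2 panel member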
T2 sequence (P05177 whole entry): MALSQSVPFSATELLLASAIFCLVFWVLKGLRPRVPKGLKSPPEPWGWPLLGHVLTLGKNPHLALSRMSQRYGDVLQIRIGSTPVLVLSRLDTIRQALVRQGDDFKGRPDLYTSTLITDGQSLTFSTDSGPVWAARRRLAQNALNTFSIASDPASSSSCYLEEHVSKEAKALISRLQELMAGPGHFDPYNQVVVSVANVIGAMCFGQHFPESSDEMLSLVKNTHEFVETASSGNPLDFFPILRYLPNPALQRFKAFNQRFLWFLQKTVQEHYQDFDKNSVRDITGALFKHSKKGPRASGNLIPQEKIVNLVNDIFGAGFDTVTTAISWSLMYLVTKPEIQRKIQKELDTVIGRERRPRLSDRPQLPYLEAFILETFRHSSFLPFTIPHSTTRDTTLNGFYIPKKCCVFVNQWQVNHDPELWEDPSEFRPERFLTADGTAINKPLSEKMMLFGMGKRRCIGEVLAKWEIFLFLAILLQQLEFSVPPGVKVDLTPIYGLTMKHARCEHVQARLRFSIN

[6] = Luminescence Cell-Based Dose Retest to Confirm Inhibitors of Cancer Stem Cells. [Related pubchem assays (depositor defined):AID2717, AID2721]; assay type: functional; conditions: Homo sapiens

Sequence of Cytochrome P450 3A4 (P08684 whole entry): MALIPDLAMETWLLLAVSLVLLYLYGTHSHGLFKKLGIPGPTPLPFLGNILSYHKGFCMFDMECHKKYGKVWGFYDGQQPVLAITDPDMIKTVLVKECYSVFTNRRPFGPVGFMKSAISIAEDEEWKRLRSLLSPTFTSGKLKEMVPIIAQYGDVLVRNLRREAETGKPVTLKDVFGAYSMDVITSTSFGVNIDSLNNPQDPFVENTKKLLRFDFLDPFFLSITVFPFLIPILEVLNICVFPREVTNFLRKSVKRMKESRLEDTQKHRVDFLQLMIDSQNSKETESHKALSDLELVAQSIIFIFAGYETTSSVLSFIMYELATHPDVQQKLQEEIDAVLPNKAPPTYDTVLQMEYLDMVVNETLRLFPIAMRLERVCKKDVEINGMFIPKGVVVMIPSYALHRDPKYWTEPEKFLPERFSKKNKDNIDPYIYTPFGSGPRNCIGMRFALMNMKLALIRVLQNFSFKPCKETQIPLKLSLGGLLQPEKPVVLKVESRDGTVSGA
Sequence of Cytochrome P450 2D6 (P10635 whole entry): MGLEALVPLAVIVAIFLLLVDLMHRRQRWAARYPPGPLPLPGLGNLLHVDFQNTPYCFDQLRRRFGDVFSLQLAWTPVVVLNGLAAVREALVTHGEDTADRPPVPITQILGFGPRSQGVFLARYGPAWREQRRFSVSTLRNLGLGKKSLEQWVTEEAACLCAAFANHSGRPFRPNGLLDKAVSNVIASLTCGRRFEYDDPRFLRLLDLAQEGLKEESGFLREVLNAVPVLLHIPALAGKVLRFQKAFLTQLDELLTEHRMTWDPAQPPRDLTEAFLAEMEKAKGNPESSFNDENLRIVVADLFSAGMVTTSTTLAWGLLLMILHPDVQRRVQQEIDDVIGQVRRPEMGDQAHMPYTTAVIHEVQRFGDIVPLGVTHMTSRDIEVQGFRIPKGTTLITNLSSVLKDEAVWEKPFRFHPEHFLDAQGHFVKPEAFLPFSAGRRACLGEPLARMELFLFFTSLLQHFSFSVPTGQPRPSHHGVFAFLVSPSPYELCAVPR
Sequence of Cytochrome P450 2C9 (P11712 whole entry): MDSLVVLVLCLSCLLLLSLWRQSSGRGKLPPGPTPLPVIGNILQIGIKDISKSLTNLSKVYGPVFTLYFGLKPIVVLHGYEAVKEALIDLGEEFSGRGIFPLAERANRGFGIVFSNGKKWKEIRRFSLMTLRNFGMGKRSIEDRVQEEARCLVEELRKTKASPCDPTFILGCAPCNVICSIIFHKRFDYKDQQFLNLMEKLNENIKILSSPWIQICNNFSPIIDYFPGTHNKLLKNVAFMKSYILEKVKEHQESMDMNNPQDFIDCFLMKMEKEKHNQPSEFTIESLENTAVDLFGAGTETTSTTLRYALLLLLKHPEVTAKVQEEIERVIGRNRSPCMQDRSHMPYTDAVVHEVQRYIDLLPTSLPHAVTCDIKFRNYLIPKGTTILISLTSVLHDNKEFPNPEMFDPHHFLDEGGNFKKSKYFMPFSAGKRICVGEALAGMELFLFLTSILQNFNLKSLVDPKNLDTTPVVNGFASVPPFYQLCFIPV
Sequence of Cytochrome P450 2C19 (P33261 whole entry): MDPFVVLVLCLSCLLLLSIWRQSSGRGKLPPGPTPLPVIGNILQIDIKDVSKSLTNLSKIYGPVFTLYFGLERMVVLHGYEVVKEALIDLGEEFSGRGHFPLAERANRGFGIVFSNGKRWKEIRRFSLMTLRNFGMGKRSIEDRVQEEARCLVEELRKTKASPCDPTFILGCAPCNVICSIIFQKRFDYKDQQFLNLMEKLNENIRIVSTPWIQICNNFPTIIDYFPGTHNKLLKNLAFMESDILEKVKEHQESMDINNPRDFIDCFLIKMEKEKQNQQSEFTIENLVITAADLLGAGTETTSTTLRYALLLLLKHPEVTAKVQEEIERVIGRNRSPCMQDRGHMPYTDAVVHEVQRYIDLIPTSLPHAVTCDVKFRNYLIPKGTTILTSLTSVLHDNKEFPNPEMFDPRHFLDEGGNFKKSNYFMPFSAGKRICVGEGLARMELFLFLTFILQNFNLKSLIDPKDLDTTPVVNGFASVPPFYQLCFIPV

With `CSc1nnc(-c2cc3c(-c4ccccc4)nn(C)c3s2)n1C` the AC50 (Cytochrome P450 2C19) was 22.4 µM (inconclusive), the AC50 (Cytochrome P450 3A4) was 31.6 µM (inconclusive) and the AC50 (Cytochrome P450 2C9) was 3.55 µM (inconclusive).

In the case of `COCCCNC(=O)[C@H]1N2C(=O)c3ccccc3C2SC1(C)C` (some centres not stated), the EC50 [1] is reported as > 53 µM (inactive).

For `CCOC(=O)c1sc(SC)c2c1CCC/C2=N/OC`, the AC50 (INS1) was > 260 µM (inactive).

For `Cn1c(=O)c(-c2ccccc2)nc2cnc(OCc3ccccc3)nc21`, the AC50 (Cytochrome P450 2C19) was 39.8 µM (inconclusive), the AC50 (Cytochrome P450 3A4) was 39.8 µM (inconclusive) and the AC50 (Cytochrome P450 2C9) was 20 µM (inconclusive).

In the case of `O=C(CSc1cn(Cc2ccccc2)c2ccccc12)Nc1nccs1`, the EC50 [2] is reported as 0.244 µM (active) and the EC50 (H4) is reported as 5.48 µM (active).

With `O=C1CC[C@](CCc2nc3ccccc3[nH]2)(c2ccccc2)C(=O)N1` the AC50 (Cytochrome P450 2D6) was 2.51 µM (inconclusive).

In the case of `COc1ccc(C(=O)N2CCC3(CCCN(Cc4ccncc4)C3)CC2)cc1`, the AC50 (Cytochrome P450 2D6) is reported as 12.6 µM (inconclusive).

With `COc1ccc(NC(=O)C2(c3ccc(NC(=O)c4ccc(OC(C)=O)cc4)cc3)CCCC2)cc1` the AC50 (Cytochrome P450 2C9) was 1.26 µM (inconclusive).

For `N#Cc1c(-c2ccc(F)cc2)cc(C2CC2)nc1SCC(=O)c1cccs1`, the EC50 [1] was > 53 µM (inactive).

With `CC(C)N1CCN(c2ccncc2S(=O)(=O)N2CCCCC2)CC1` the AC50 (Cytochrome P450 2D6) was 3.98 µM (inconclusive).

With `COc1ccc2[nH]c(/C(C#N)=C\c3ccc(Oc4ccc([N+](=O)[O-])cn4)cc3)nc2c1` the AC50 (INS1) was 3.64 µM (active).

With `COc1ccc(C(=O)C/C(=C\C(=O)c2ccc(C)cc2)c2ccccc2)cc1` the EC50 [3] was > 60 µM (not active), the AC50 (INS1) was 7 µM (active) and the EC50 [4] was 1.93 µM (active).

With `CC(=O)N1CCC2(CC1)CCN(c1ccncc1)CC2` the AC50 (Cytochrome P450 2C9) was 25.1 µM (inconclusive).

With `COc1cccc([C@H]2Oc3ccc(OC)cc3/C(=N\OC[C@@H](O)[C@@H]3O[C@@H]4OC(C)(C)O[C@@H]4[C@H]3O)[C@@H]2O)c1` the AC50 (Cytochrome P450 2D6) was 3.16 µM (inconclusive).

For `COc1ccc(-c2cc(-c3c(O)c(OC)c4occc4c3OC)[nH]n2)cc1`, the EC50 [5] was 25.8 µM (active).

For `CC(=O)Nc1ccc(C2=NN(CC#N)C(=O)SC2)cc1`, the AC50 (Cytochrome P450 1A2) was 15.8 µM (inconclusive) and the AC50 (Cytochrome P450 2C9) was 8.91 µM (inconclusive).

In the case of `CC(=O)c1ccc(NC(S)=NCCc2cccc(Cl)c2)cc1`, the EC50 [2] is reported as 2.64 µM (active) and the EC50 (H4) is reported as > 120 µM (not active).

For `CC(=O)Nc1ccc(Sc2ncccc2C(=O)Nc2ccc(F)cc2)cn1`, the AC50 (Cytochrome P450 2C19) was 39.8 µM (inconclusive), the AC50 (Cytochrome P450 3A4) was 15.8 µM (inconclusive) and the AC50 (Cytochrome P450 2C9) was 10 µM (inconclusive). The EC50 [1] was 1.97 µM (active).

In the case of `COc1ccc(Oc2nnc(C)c3ccccc23)cc1`, the EC50 [2] is reported as 2.76 µM (active) and the EC50 (H4) is reported as 5.97 µM (active).

In the case of `CCN(CC)CCOC(=O)c1c(C)n(C)c2ccc(OC)cc12`, the AC50 (Cytochrome P450 2D6) is reported as 28.2 µM (inconclusive) and the AC50 (Cytochrome P450 2C19) is reported as 39.8 µM (inconclusive).

With `Cc1cccc(NC(=O)C2CCN(S(=O)(=O)c3cccc4nsnc34)CC2)n1` the AC50 (Cytochrome P450 1A2) was 0.0794 µM (inconclusive), the AC50 (Cytochrome P450 2D6) was 14.1 µM (inconclusive) and the AC50 (Cytochrome P450 2C9) was 14.1 µM (inconclusive).

With `Cc1cccc(NC(=N)Nc2nc(C)cc(C)n2)c1` the EC50 [1] was 10.7 µM (active).

In the case of `Cc1cccc(CNc2nc(-c3cccc(NS(C)(=O)=O)c3)nc3ccccc23)c1`, the AC50 (Cytochrome P450 2C9) is reported as 0.501 µM (inconclusive).

In the case of `CC1=NN(C(=O)c2ccncc2)C(=O)[C@@H]1/N=N\c1ccc2ccccc2c1`, the AC50 (Cytochrome P450 2D6) is reported as 3.16 µM (inconclusive), the AC50 (Cytochrome P450 2C19) is reported as 3.98 µM (inconclusive) and the AC50 (Cytochrome P450 3A4) is reported as 3.98 µM (inconclusive).

For `Cc1ccc(Nc2nnc(-c3ccc4c(c3)OCO4)o2)c(C)c1`, the AC50 (Cytochrome P450 2C9) was 7.94 µM (inconclusive).

In the case of `CC(C)(C)c1ccc(C(=O)Nc2ccc(N3CCOCC3)cc2)cc1`, the AC50 [6] is reported as 4.04 µM (active).

With `Cn1c2c(c(=O)n(C)c1=O)C1(C(=O)Nc3ccccc31)C(C#N)=C(N)O2` (configuration not stated) the AC50 (Cytochrome P450 1A2) was 25.1 µM (inconclusive), the AC50 (Cytochrome P450 2D6) was 14.1 µM (inconclusive) and the AC50 (Cytochrome P450 3A4) was 22.4 µM (inconclusive).

With `FC(F)(F)c1ccccc1-c1nc(N2CCOCC2)c2ccccc2n1` the AC50 (Cytochrome P450 2D6) was 25.1 µM (inconclusive) and the AC50 (Cytochrome P450 3A4) was 12.6 µM (inconclusive).

In the case of `COc1ccc(N2CCN(C(S)=Nc3cccc(C)c3)CC2)cc1`, the AC50 (Cytochrome P450 3A4) is reported as 2.24 µM (inconclusive) and the AC50 (Cytochrome P450 2C9) is reported as 0.00562 µM (inconclusive).

In the case of `O=C(CNS(=O)(=O)c1cccs1)N1CCC2(CC1)OCCO2`, the AC50 (Cytochrome P450 2C9) is reported as 39.8 µM (inconclusive).

In the case of `O=C(OCc1cccc(F)c1)c1ccc2c(c1)-c1ccccc1C2=O`, the AC50 (Cytochrome P450 2D6) is reported as 0.355 µM (inconclusive) and the AC50 (Cytochrome P450 2C9) is reported as 10 µM (inconclusive).

For `O=C(c1ccncc1)N1CCC2(CCN(Cc3ccncc3)CC2)CC1`, the AC50 (Cytochrome P450 2D6) was 25.1 µM (inconclusive), the AC50 (Cytochrome P450 3A4) was 15.8 µM (inconclusive) and the AC50 (Cytochrome P450 2C9) was 20 µM (inconclusive).

In the case of `CCC(=O)NCCNC(=O)c1c(SC)nsc1SC`, the AC50 (Cytochrome P450 1A2) is reported as 3.16 µM (inconclusive), the AC50 (Cytochrome P450 2C19) is reported as 39.8 µM (inconclusive) and the AC50 (Cytochrome P450 2C9) is reported as 12.6 µM (inconclusive).

With `Cc1ccnc(N(C(=O)Nc2ccccc2)C2=NCC(C)(C)S2)c1` the EC50 [2] was 0.709 µM (active) and the EC50 (H4) was > 120 µM (not active).

With `COC(=O)C1(CC(C)C)C=C2C(=C(C(C)C)C(=O)C2C)CN1` (configuration not stated) the AC50 (Cytochrome P450 1A2) was 15.8 µM (inconclusive), the AC50 (Cytochrome P450 2D6) was 25.1 µM (inconclusive) and the AC50 (Cytochrome P450 2C19) was 25.1 µM (inconclusive). For the same molecule, the AC50 (Cytochrome P450 3A4) was 20 µM (inconclusive).

For `O=C(NCc1ccccc1)C1=C[C@H](c2csc3ccccc23)C[C@H](OCCCCO)O1`, the AC50 (INS1) was 5.81 µM (active).

In the case of `COc1ccc(O[C@H]2C=C[C@@H](c3ccccc3)O[C@H]2COC(=O)CC/C(C)=N\O[C@@H](C)CN2CCCc3nc(C)c(C)cc32)cc1`, the AC50 (Cytochrome P450 2C9) is reported as 3.98 µM (inconclusive).

With `O=c1c(Oc2ccccc2Br)c(C(F)(F)F)oc2c(CN3CCCC3)c(O)ccc12` the AC50 (Cytochrome P450 1A2) was 17.8 µM (inconclusive), the AC50 (Cytochrome P450 2D6) was 17.8 µM (inconclusive) and the AC50 (Cytochrome P450 2C19) was 39.8 µM (inconclusive).

For `COc1ccc([N+](=O)[O-])cc1NC1C2CC3CC(C2)CC1C3` (configuration not stated), the AC50 (Cytochrome P450 3A4) was 11.2 µM (inconclusive) and the AC50 (Cytochrome P450 2C9) was 22.4 µM (inconclusive).

With `Cc1ccc(S(=O)(=O)N/N=C/c2ccc(OC3CSC3)cc2)cc1` the AC50 (Cytochrome P450 2C19) was 4.47 µM (inconclusive) and the EC50 [1] was 5.51 µM (active).

With `CSc1nc(C)cc(OCC(=O)N/N=C/c2ccccc2O)n1` the AC50 [6] was 3.38 µM (active).

In the case of `O=C(O)c1ccc2c(c1)C(=O)N(C(Cc1ccc(O)cc1)C(=O)O)C2=O` (configuration not stated), the AC50 (Cytochrome P450 2D6) is reported as 0.01 µM (inconclusive).
